Several values for one entry are separate records, joined by “and”; a condition that tells them apart may be missing. Equal values may be shown once.
System: LNCaP xenograft tumor-bearing mice
Experiment: Biodistribution of 225Ac-macropa-RPS-070 in LNCaP xenograft mice
Assay type: in vivo, mouse
Protocol: Cell Culture. […] Cell culture supplies were from Invitrogen unless otherwise noted.
Inoculation of Mice with Xenografts. All animal studies were approved by the Institutional Animal Care and Use Committee of Weill Cornell Medicine and were undertaken in accordance with the guidelines set forth by the USPHS Policy on Humane Care and Use of Laboratory Animals. Animals were housed under standard conditions in approved facilities with 12 h light/dark cycles. Food and water was provided ad libitum throughout the course of the studies. Hairless male nu/nu mice were purchased from the Jackson Laboratory. For inoculation in mice, LNCaP cells were suspended at 4×10^7 cells/mL in a 1:1 mixture of PBS:Matrigel (BD Biosciences). Each mouse was injected in the left flank with 0.25 mL of the cell suspension. Biodistributions were conducted when tumors were in the range 100-400 mm^3.
Biodistribution of […] in LNCaP xenograft mice. Fifteen LNCaP xenograft tumor-bearing mice (5 per time point) were injected intravenously with a bolus injection of 85-95 kBq and 100 ng ([…]) of each ligand. The mice were sacrificed by cervical dislocation at 4, 24 and 96 h post injection. A blood sample was removed, and a full biodistribution study was conducted on the following organs (with contents): heart, lungs, liver, small intestine, large intestine, stomach, spleen, pancreas, kidneys, muscle, bone, and tumor. Tissues were weighed and counted on a 2470 Wizard Automatic Gamma Counter (Perkin Elmer). 1% ID/mL samples were counted prior to and following each set of tissue samples to enable decay correction to be undertaken. Counts were corrected for decay and for activity injected, and tissue uptake was expressed as percent injected dose per gram (% ID/g). Standard error measurement was calculated for each data point.

[1] = 4 h after i.v. injection, n = 5

With O=C(O)CC[C@H](NC(=O)N[C@@H](CCCCNC(=O)Nc1cccc(-c2cn(CCOCCOCCOCCOCCOCCOCCC(=O)N[C@@H](CCCCNC(=S)Nc3cc(CN4CCOCCOCCN(Cc5cccc(C(=O)[O-])n5)CCOCCOCC4)nc(C(=O)[O-])c3)C(=O)N[C@@H](CCCCNC(=O)Cc3ccc(I)cc3)C(=O)O)nn2)c1)C(=O)O)C(=O)O.[225Ac+3] [225Ac-macropa-RPS-070] the “Organ distribution, Blood, individual mice 1-5” value (4 h after i.v. injection) was 0.9065 % ID/g and 0.5525 % ID/g and 1.118 % ID/g and 0.8276 % ID/g and 0.6564 % ID/g, the “Organ distribution, Bone, individual mice 1-5” value (4 h after i.v. injection) was 1.149 % ID/g and 1.123 % ID/g and 1.487 % ID/g and 0.9204 % ID/g and 1.155 % ID/g and the “Organ distribution, Heart, individual mice 1-5” value (4 h after i.v. injection) was 0.7576 % ID/g and 0.6532 % ID/g and 0.774 % ID/g and 0.7515 % ID/g and 0.6565 % ID/g. For the same molecule, the “Organ distribution, Kidneys, individual mice 1-5” value (4 h after i.v. injection) was 65.5884 % ID/g and 20.5274 % ID/g and 108.233 % ID/g and 33.654 % ID/g and 33.0707 % ID/g, the “Organ distribution, Large Intestine, individual mice 1-5” value (4 h after i.v. injection) was 1.363 % ID/g and 0.6516 % ID/g and 1.274 % ID/g and 0.9166 % ID/g and 0.819 % ID/g and the “Organ distribution, Liver, individual mice 1-5” value (4 h after i.v. injection) was 1.622 % ID/g and 1.346 % ID/g and 1.742 % ID/g and 1.681 % ID/g and 1.3957 % ID/g. The “Organ distribution, Lungs, individual mice 1-5” value (4 h after i.v. injection) was 0.9956 % ID/g and 0.6067 % ID/g and 1.2979 % ID/g and 0.9859 % ID/g and 0.8866 % ID/g, the “Organ distribution, Muscle, individual mice 1-5” value (4 h after i.v. injection) was 0.6801 % ID/g and 0.8058 % ID/g and 0.7282 % ID/g and 0.6767 % ID/g and 0.6562 % ID/g and the “Organ distribution, Pancreas, individual mice 1-5” value (4 h after i.v. injection) was 0.5549 % ID/g and 0.4164 % ID/g and 0.5532 % ID/g and 0.4675 % ID/g and 0.6604 % ID/g. For the same molecule, the “Organ distribution, Small Intestine, individual mice 1-5” value (4 h after i.v. injection) was 0.1998 % ID/g and 0.1628 % ID/g and 0.3104 % ID/g and 0.2441 % ID/g and 0.1709 % ID/g, the “Organ distribution, Spleen, individual mice 1-5” value (4 h after i.v. injection) was 1.409 % ID/g and 0.708 % ID/g and 1.613 % ID/g and 1.108 % ID/g and 0.8756 % ID/g and the “Organ distribution, Stomach, individual mice 1-5” value (4 h after i.v. injection) was 0.3396 % ID/g and 0.2471 % ID/g and 0.3042 % ID/g and 0.4109 % ID/g and 0.2122 % ID/g. The “Organ distribution, Tumor, individual mice 1-5” value (4 h after i.v. injection) was 6.732 % ID/g and 10.7309 % ID/g and 23.8367 % ID/g and 15.3682 % ID/g and 7.504 % ID/g, the “Organ distribution, Blood, Mean” value [1] was 0.8122 % ID/g and the “Organ distribution, Bone, Mean” value [1] was 1.167 % ID/g. The “Organ distribution, Heart, Mean” value [1] was 0.7189 % ID/g, the “Organ distribution, Kidneys, Mean” value [1] was 52±16 % ID/g and 52.2146 % ID/g and the “Organ distribution, Large Intestine, Mean” value [1] was 1.005 % ID/g. For the same molecule, the “Organ distribution, Liver, Mean” value [1] was 1.557 % ID/g, the “Organ distribution, Lungs, Mean” value [1] was 0.9469 % ID/g and the “Organ distribution, Muscle, Mean” value [1] was 0.7094 % ID/g. For the same molecule, the “Organ distribution, Pancreas, Mean” value [1] was 0.5305 % ID/g, the “Organ distribution, Small Intestine, Mean” value [1] was 0.2176 % ID/g and the “Organ distribution, Spleen, Mean” value [1] was 1.143 % ID/g. The “Organ distribution, Stomach, Mean” value [1] was 0.3028 % ID/g, the “Organ distribution, Tumor, Mean” value [1] was 13±3 % ID/g and 12.8342 % ID/g and the “Organ distribution, Blood, individual mice 1-5” value (24 h after i.v. injection) was 0.3483 % ID/g and 0.3132 % ID/g and 0.2208 % ID/g and 0.2945 % ID/g and 0.277 % ID/g. For the same molecule, the “Organ distribution, Bone, individual mice 1-5” value (24 h after i.v. injection) was 1.273 % ID/g and 1.066 % ID/g and 0.8394 % ID/g and 1.006 % ID/g and 0.6976 % ID/g, the “Organ distribution, Heart, individual mice 1-5” value (24 h after i.v. injection) was 0.5226 % ID/g and 0.5633 % ID/g and 0.4521 % ID/g and 0.4791 % ID/g and 0.4648 % ID/g and the “Organ distribution, Kidneys, individual mice 1-5” value (24 h after i.v. injection) was 4.988 % ID/g and 4.257 % ID/g and 3.946 % ID/g and 3.665 % ID/g and 4.103 % ID/g. The “Organ distribution, Large Intestine, individual mice 1-5” value (24 h after i.v. injection) was 0.133 % ID/g and 0.1259 % ID/g and 0.1325 % ID/g and 0.1343 % ID/g and 0.1318 % ID/g, the “Organ distribution, Liver, individual mice 1-5” value (24 h after i.v. injection) was 1.578 % ID/g and 1.476 % ID/g and 1.138 % ID/g and 1.143 % ID/g and 1.485 % ID/g and the “Organ distribution, Lungs, individual mice 1-5” value (24 h after i.v. injection) was 0.5378 % ID/g and 0.4508 % ID/g and 0.4608 % ID/g and 0.4286 % ID/g and 0.4483 % ID/g. The “Organ distribution, Muscle, individual mice 1-5” value (24 h after i.v. injection) was 0.6119 % ID/g and 0.5149 % ID/g and 0.4483 % ID/g and 0.7803 % ID/g and 0.4458 % ID/g, the “Organ distribution, Pancreas, individual mice 1-5” value (24 h after i.v. injection) was 0.3985 % ID/g and 0.3912 % ID/g and 0.5035 % ID/g and 0.3332 % ID/g and 0.3194 % ID/g and the “Organ distribution, Small Intestine, individual mice 1-5” value (24 h after i.v. injection) was 0.08784 % ID/g and 0.09914 % ID/g and 0.08822 % ID/g and 0.09466 % ID/g and 0.1037 % ID/g. The “Organ distribution, Spleen, individual mice 1-5” value (24 h after i.v. injection) was 0.6208 % ID/g and 0.6576 % ID/g and 0.6201 % ID/g and 0.5768 % ID/g and 0.5855 % ID/g, the “Organ distribution, Stomach, individual mice 1-5” value (24 h after i.v. injection) was 0.1296 % ID/g and 0.1212 % ID/g and 0.1119 % ID/g and 0.1467 % ID/g and 0.1533 % ID/g and the “Organ distribution, Tumor, individual mice 1-5” value (24 h after i.v. injection) was 11.6163 % ID/g and 9.269 % ID/g and 7.502 % ID/g and 4.414 % ID/g and 8.047 % ID/g.

Source: patent US12377175B2, “Trifunctional constructs with tunable pharmacokinetics useful in imaging and anti-tumor therapies” (Cornell University, priority 2016, dated 2025)
